Test results: PMC3542062, “A phenyl-thiadiazolylidene-amine derivative ejects zinc from retroviral nucleocapsid zinc fingers and inactivates HIV virions” (Retrovirology, 2012)

Legend:
SIV Mac251 = assay: MT-4/MTT-assay, protection against virus-induced cytopathic effect; type: cell-based; conditions: MT-4 cells, MTT, 5 days after infection
AZTR HIV-1 strain = assay: GFP-assay in Jurkat A72 (LTR-GFP) cells; type: cell-based; conditions: Human immunodeficiency virus 1, Jurkat, 72 h, read-out: EC50 AZTR
VZV = assay: Activity against replication of non-retroviruses; type: cell-based
[1] = system: HIV-1 NL4.3 transmission from Raji/DC-SIGN cells to C8166 cells; assay: Transmission of DC-SIGN-captured pretreated virus to C8166 cells (procedure B); type: cell-based; conditions: Human immunodeficiency virus 1; Raji/DC-SIGN exposed to compound-pretreated (1 h) HIV, compound removed, cocultured with C8166
[2] = system: HIV-1 NL4.3 transmission from Raji/DC-SIGN cells to C8166 cells; assay: Transmission of DC-SIGN-captured virus to C8166 cells in presence of compound (procedure C); type: cell-based; conditions: Human immunodeficiency virus 1; HIV-captured Raji/DC-SIGN cocultivated with C8166 in presence of compound; giant cell formation
[3] = Cytotoxicity in mock-infected MT-4 cells (MTT); type: cell-based; conditions: human, mock-infected MT-4 cells
NCp7(11-55) = assay: Zinc ejection monitored by Trp37 intrinsic fluorescence; type: biochemical, HIV-1
Experimental: Ejection of 50% of the zinc is observed in less than 5 minutes (Figure 4C).
As a reference, NCp7(11-55) was treated with 1 mM EDTA, a well known zinc chelator (triangle). […] (B) Time-dependent zinc ejection from NCp7(11-55). […] The data points (stars) corresponded to the fluorescence intensity at the maximum emission wavelength from panel B. Solid line represents a double-exponential fit to the data. (D) Zinc ejection from NCp7(11-55) in the presence of an excess of zinc. Emission spectra of the NCp7(11-55) (1 μM) in the presence of an excess of 100 μM zinc (triangle). […] The emission spectrum of NCp7(11-55) incubated with 1 mM EDTA (triangle) for one hour is given as a reference.
The NC(11-55) peptide was synthesized by solid phase peptide synthesis on a 433A synthesizer (ABI, Foster City, CA), as previously described. The lyophilized peptide was dissolved in water, and its concentration was determined using an extinction coefficient of 5,700 M^–1 x cm^–1 at 280 nm. Next, 2.5 molar equivalents of ZnSO4 were added to the peptide and pH was raised to its final value, by adding buffer. The increase of pH was done only after zinc addition to avoid oxidization of the zinc-free peptide.
Absorption spectra were recorded on a Cary 400 spectrophotometer. Fluorescence spectra were recorded at 20°C on a Fluorolog spectrofluorometer (Horiba, Jobin-Yvon), equipped with a thermostated cell compartment. Excitation wavelength was 295 nm and 520 nm, for NC(11-55) and Rh6G-5^′-cTAR-3^′-Dabcyl, respectively. The spectra were corrected for dilution and buffer fluorescence. The protein spectra were additionally corrected for screening effects due to the zinc ejecting agent, using: […]

RSV = assay: Activity against replication of non-retroviruses; type: cell-based
[4] = system: HIV-1 IIIB chronically-infected HuT-78 cells; assay: Gag processing in virions from HIV-1 IIIB chronically-infected HuT-78 cells (western blot); type: cell-based; conditions: HuT-78/IIIB cells treated 43 hours; WDO-217 50, 25 μM; ritonavir 2.7 μM; SRR-SB3 75, 15 μM
Experimental: Recently, it has been shown that this new mechanism involves acetylation of the NCp7 region of Gag, thereby blocking Gag processing.
HIV-1 IIIB virions from persistently infected HuT-78 cells treated with different concentrations of compound were analysed by gel electrophoresis and immunoblotted with antibody against capsid.
Chronically-infected HIV-1 IIIB HuT-78 cells (HuT-78/IIIB) were washed four times with PBS to remove all free virions before treatment and 2 × 10^5 cells were resuspended in 1 ml compound-containing medium for 43 hours at 37°C. Then, virions were prepared from clarified supernatants (10 min at 300 g) by centrifugation at 36670 g for 2 hours at 4°C. Protein from lysed virions were separated by SDS-PAGE on a NuPage® Novex 4-12% Bis-Tris gel (Invitrogen) and transferred on a hydrophobic polyvinylidene difluoride (PVDF) membrane (Amersham Hybond™-P). The blot was blocked overnight at 4°C by 5% dry milk powder in Western blot wash solution (WBWS; PBS + 0.5% Tween 20), washed three times for 5 minutes with WBWS and incubated with a mouse anti-HIV-1 p24 antibody (1:5000) from Abcam. The blot was then washed three times for 5 minutes with WBWS and incubated for 1 h with a goat anti-mouse IgG-HRP secondary antibody (1:2500) from Santa Cruz Biotechnology. […]

ETH2220 subtype C = assay: Virucidal assay on clinical isolates, titration on PBMCs; type: cell-based, HIV-1; conditions: 125 μM, 1 h 37°C, untreated control 64969
NC(11-55) = assay: Inhibition of NC(11-55)-induced destabilization of cTAR (Rh6G-cTAR-Dabcyl fluorescence); type: biochemical, HIV-1
Experimental: The NCp7-induced destabilization of cTAR can be sensitively monitored by using the doubly labeled Rh6G-5^′-cTAR-3^′-Dabcyl derivative.
(A) Emission spectra of Rh6G-cTAR-Dabcyl (0.1 μM) recorded in the absence (circle) or in the presence of NCp7(11-55) (1 μM) (square). […] Excitation wavelength was 520 nm. […] Excitation wavelength was 520 nm.
An extinction coefficient at 260 nm of 521,910 M^–1 x cm^–1 was used for cTAR. All experiments were performed at 20°C in 25 mM Tris–HCl, pH 7.5, 30 mM NaCl, and 0.2 mM MgCl2[28].

[5] = 10 μM compound, 1 μM NCp7(11-55)
[6] = 10 μM compound, 1 μM NC(11-55), 0.1 μM cTAR

Cn1sc(=N)nc1-c1ccccc1 [WDO-217, 2-methyl-3-phenyl-2H-[1,2,4]thiadiazol-5-ylideneamine]
EC50 (SIV Mac251): 5.3 ± 1.5 µM
EC50 (SIV Mac251; Simian immunodeficiency virus, MT4, 120 h): 5 ± 1 µM
EC50 (AZTR HIV-1 strain): 1.5 ± 0.6 µM
activity against replication of VZV (VZV): inactive
IC50 [1]: 2.2 ± 1 µM
IC50 [2]: 8.3 ± 0.4 µM
CC50 at 5 days [3]: ~72 µM
time to complete zinc ejection (NCp7(11-55); [5]): 35 min
time to ejection of 50% of the zinc (NCp7(11-55); [5]): less than 5 minutes
zinc ejection (decrease of Trp37 fluorescence, same as 1 mM EDTA) (NCp7(11-55); 10-fold excess (10 μM), 1 h pre-incubation): efficiently ejects zinc
activity against replication of RSV (RSV): inactive
accumulation of unprocessed Gag polyprotein in progeny virus [4]: did not result in a drastic accumulation
CCID50/ml ETH2220 subtype C (ETH2220 subtype C): 2558 CCID50/ml
time to 50% inhibition of NC(11-55)-induced cTAR destabilization (NC(11-55); [6]): less than 5 minutes
time to complete inhibition of NC(11-55)-induced cTAR destabilization (NC(11-55); [6]): 50 min
NC(11-55) ability to destabilize cTAR after preincubation (NC(11-55); molar ratio 10:1 compound to NC(11-55)): full loss
